Test results published in ChEMBL document CHEMBL3112491, “3-(5-)-Amino-o-diarylisoxazoles: regioselective synthesis and antitubulin activity” (2014).

What was measured:
Format in all cases: functional
[1] = test system: BT-549; test: Growth inhibition of human BT549 cells after 48 hrs by sulforhodamine B assay; settings: BT-549, 48 h
[2] = test system: NCI-H460; test: Growth inhibition of human NCI-H460 cells after 48 hrs by sulforhodamine B assay; settings: NCI-H460, 48 h
[3] = test system: MDA-MB-231; test: Growth inhibition of human MDA-MB-231 cells after 48 hrs by sulforhodamine B assay; settings: MDA-MB-231, 48 h
[4] = test system: SF-268; test: Growth inhibition of human SF268 cells after 48 hrs by sulforhodamine B assay; settings: SF-268, 48 h
[5] = test system: 786-0; test: Growth inhibition of human 786-0 cells after 48 hrs by sulforhodamine B assay; settings: 786-0, 48 h
[6] = Growth inhibition of human UO31 cells after 48 hrs by sulforhodamine B assay; settings: UO-31, 48 h
[7] = test system: KM12; test: Growth inhibition of human KM12 cells after 48 hrs by sulforhodamine B assay; settings: KM12, 48 h
[8] = Growth inhibition of human Hs 578T cells after 48 hrs by sulforhodamine B assay
[9] = test system: SW-620; test: Growth inhibition of human SW620 cells after 48 hrs by sulforhodamine B assay; settings: SW-620, 48 h
[10] = test system: SN12C; test: Growth inhibition of human SN12C cells after 48 hrs by sulforhodamine B assay
[11] = test system: OVCAR-8; test: Growth inhibition of human OVCAR8 cells after 48 hrs by sulforhodamine B assay; settings: OVCAR-8, 48 h
[12] = test system: SNB-19; test: Growth inhibition of human SNB19 cells after 48 hrs by sulforhodamine B assay; settings: SNB-19, 48 h
[13] = test system: COLO 205; test: Growth inhibition of human COLO205 cells after 48 hrs by sulforhodamine B assay; settings: COLO 205, 48 h
[14] = test system: Malme-3M; test: Growth inhibition of human MALME-3M cells after 48 hrs by sulforhodamine B assay
[15] = test system: HL-60(TB); test: Growth inhibition of human HL-60(TB) cells after 48 hrs by sulforhodamine B assay; settings: HL-60, 48 h
[16] = Growth inhibition of human SF539 cells after 48 hrs by sulforhodamine B assay; settings: SF-539, 48 h
[17] = test system: SK-MEL-2; test: Growth inhibition of human SK-MEL-2 cells after 48 hrs by sulforhodamine B assay; settings: SK-MEL-2, 48 h
[18] = test system: A549; test: Growth inhibition of human A549/ATCC cells after 48 hrs by sulforhodamine B assay; settings: A549, 48 h
[19] = test system: M14; test: Growth inhibition of human M14 cells after 48 hrs by sulforhodamine B assay; settings: M14, 48 h
[20] = test system: HCT-116; test: Growth inhibition of human HCT116 cells after 48 hrs by sulforhodamine B assay; settings: HCT-116, 48 h
[21] = test system: SR; test: Growth inhibition of human SR cells after 48 hrs by sulforhodamine B assay
[22] = test system: MDA-MB-435; test: Growth inhibition of human MDA-MB-435 cells after 48 hrs by sulforhodamine B assay; settings: MDA-MB-435, 48 h
[23] = test system: Paracentrotus lividus; test: Antimitotic activity in sea urchin fertilized egg assessed as cleavage arrest treated at 8 to 20 mins post-fertilization measured at 2.5 to 5.5 hrs post-fertilization
[24] = test system: U-251; test: Growth inhibition of human U251 cells after 48 hrs by sulforhodamine B assay; settings: U-251, 48 h
[25] = test system: ACHN; test: Growth inhibition of human ACHN cells after 48 hrs by sulforhodamine B assay
[26] = test system: SF-295; test: Growth inhibition of human SF295 cells after 48 hrs by sulforhodamine B assay; settings: SF-295, 48 h
[27] = test system: SK-OV-3; test: Growth inhibition of human SKOV3 cells after 48 hrs by sulforhodamine B assay; settings: SK-OV-3, 48 h
[28] = test system: Paracentrotus lividus; test: Microtubule destabilizing activity in sea urchin free-swimming blastula assessed as embryo spinning treated at 9 to 10 hrs post-fertilization measured after 0.15 to 15 hrs
[29] = test system: T47D; test: Growth inhibition of human T47D cells after 48 hrs by sulforhodamine B assay
[30] = test system: HCT-15; test: Growth inhibition of human HCT15 cells after 48 hrs by sulforhodamine B assay; settings: HCT-15, 48 h
[31] = test system: CCRF-CEM; test: Growth inhibition of human CCRF-CEM cells after 48 hrs by sulforhodamine B assay
[32] = Growth inhibition of human HCC2998 cells after 48 hrs by sulforhodamine B assay; settings: HCC 2998, 48 h
[33] = Growth inhibition of human HOP92 cells after 48 hrs by sulforhodamine B assay; settings: HOP-92, 48 h
[34] = test system: HOP-62; test: Growth inhibition of human HOP62 cells after 48 hrs by sulforhodamine B assay; settings: HOP-62, 48 h
[35] = Growth inhibition of human RXF393 cells after 48 hrs by sulforhodamine B assay; settings: RXF 393, 48 h
[36] = test system: LOX IMVI; test: Growth inhibition of human LOXIMVI cells after 48 hrs by sulforhodamine B assay
[37] = Growth inhibition of human OVCAR4 cells after 48 hrs by sulforhodamine B assay; settings: OVCAR-4, 48 h
[38] = test system: PC-3; test: Growth inhibition of human PC3 cells after 48 hrs by sulforhodamine B assay; settings: PC-3, 48 h
[39] = test system: UACC-62; test: Growth inhibition of human UACC62 cells after 48 hrs by sulforhodamine B assay; settings: UACC-62, 48 h
[40] = test system: IGROV-1; test: Growth inhibition of human IGROV1 cells after 48 hrs by sulforhodamine B assay; settings: IGROV-1, 48 h
[41] = test system: DU-145; test: Growth inhibition of human DU145 cells after 48 hrs by sulforhodamine B assay; settings: DU-145, 48 h
[42] = test system: A498; test: Growth inhibition of human A498 cells after 48 hrs by sulforhodamine B assay; settings: A498, 48 h
[43] = test system: Paracentrotus lividus; test: Antimitotic activity in sea urchin fertilized egg assessed as cleavage alteration treated at 8 to 20 mins post-fertilization measured at 2.5 to 5.5 hrs post-fertilization
[44] = test system: NCI-H23; test: Growth inhibition of human NCI-H23 cells after 48 hrs by sulforhodamine B assay; settings: NCI-H23, 48 h
[45] = test system: SK-MEL-28; test: Growth inhibition of human SK-MEL-28 cells after 48 hrs by sulforhodamine B assay; settings: SK-MEL-28, 48 h
[46] = test system: NCI-H322M; test: Growth inhibition of human NCI-H322M cells after 48 hrs by sulforhodamine B assay
[47] = Growth inhibition of human EKVX cells after 48 hrs by sulforhodamine B assay
[48] = Growth inhibition of human NCI-ADR-RES cells after 48 hrs by sulforhodamine B assay
[49] = test system: MOLT-4; test: Growth inhibition of human MOLT4 cells after 48 hrs by sulforhodamine B assay; settings: MOLT-4, 48 h
[50] = test system: NCI-H226; test: Growth inhibition of human NCI-H226 cells after 48 hrs by sulforhodamine B assay; settings: NCI-H226, 48 h
[51] = test system: CAKI-1; test: Growth inhibition of human CAKI-1 cells after 48 hrs by sulforhodamine B assay; settings: CAKI-1, 48 h
[52] = Growth inhibition of human OVCAR5 cells after 48 hrs by sulforhodamine B assay; settings: OVCAR-5, 48 h
[53] = test system: TK-10; test: Growth inhibition of human TK10 cells after 48 hrs by sulforhodamine B assay; settings: TK-10, 48 h
[54] = test system: HT-29; test: Growth inhibition of human HT-29 cells after 48 hrs by sulforhodamine B assay; settings: HT-29, 48 h
[55] = test system: MCF7; test: Growth inhibition of human MCF7 cells after 48 hrs by sulforhodamine B assay; settings: MCF7, 48 h
[56] = test system: NCI-H522; test: Growth inhibition of human NCI-H522 cells after 48 hrs by sulforhodamine B assay; settings: NCI-H522, 48 h
[57] = test system: SK-MEL-5; test: Growth inhibition of human SK-MEL-5 cells after 48 hrs by sulforhodamine B assay; settings: SK-MEL-5, 48 h
[58] = test system: RPMI-8226; test: Growth inhibition of human RPMI8226 cells after 48 hrs by sulforhodamine B assay; settings: RPMI-8226, 48 h
[59] = test system: MDA-MB-468; test: Growth inhibition of human MDA-MB-468 cells after 48 hrs by sulforhodamine B assay; settings: MDA-MB-468, 48 h
[60] = test system: OVCAR-3; test: Growth inhibition of human OVCAR3 cells after 48 hrs by sulforhodamine B assay; settings: OVCAR-3, 48 h
[61] = test system: SNB-75; test: Growth inhibition of human SNB75 cells after 48 hrs by sulforhodamine B assay; settings: SNB-75, 48 h
[62] = Growth inhibition of human UACC257 cells after 48 hrs by sulforhodamine B assay; settings: UACC-257, 48 h

COc1ccc(-c2c(-c3cc(OC)c4c(c3)OCCO4)noc2N)cc1
GI50 [1]: 28.5 nM
GI50 [2]: < 10 nM
GI50 [3]: 73.4 nM
GI50 [4]: 30 nM
GI50 [5]: 14.5 nM
GI50 [6]: 57.8 nM
GI50 [7]: < 10 nM
GI50 [8]: < 10 nM
GI50 [9]: < 10 nM
GI50 [10]: 31.8 nM
GI50 [11]: 21.5 nM
GI50 [12]: 26.9 nM
GI50 [13]: < 10 nM
GI50 [14]: 23600 nM
GI50 [15]: 10.4 nM
GI50 [16]: 13 nM
GI50 [17]: < 10 nM
GI50 [18]: 10.1 nM
GI50 [19]: < 10 nM
GI50 [20]: < 10 nM
GI50 [21]: < 10 nM
GI50 [22]: < 10 nM
EC [23]: 0.01 µM
GI50 [24]: 14.8 nM
GI50 [25]: 12.2 nM
GI50 [26]: < 10 nM
GI50 [27]: < 10 nM
EC [28]: 0.1 µM
GI50 [29]: 27.2 nM
GI50 [30]: < 10 nM
GI50 [31]: 15.5 nM
GI50 [32]: 20.1 nM
GI50 [33]: 446 nM
GI50 [34]: < 10 nM
GI50 [35]: < 10 nM
GI50 [36]: 11.2 nM
GI50 [37]: 78.7 nM
GI50 [38]: 24.8 nM
GI50 [39]: < 10 nM
GI50 [40]: 13.6 nM
GI50 [41]: 32 nM
GI50 [42]: < 10 nM
EC [43]: 0.002 µM
GI50 [44]: 1.95 nM
GI50 [45]: 17 nM
GI50 [46]: 25400 nM
GI50 [47]: 35.3 nM
GI50 [48]: < 10 nM
GI50 [49]: 39.8 nM
GI50 [50]: 27.7 nM
GI50 [51]: < 10 nM
GI50 [52]: 50.5 nM
GI50 [53]: 15.8 nM
GI50 [54]: < 10 nM
GI50 [55]: < 10 nM
GI50 [56]: < 10 nM
GI50 [57]: < 10 nM
GI50 [58]: 33.8 nM
GI50 [59]: 12.2 nM
GI50 [60]: < 10 nM

COc1ccc(-c2c(-c3cc(OC)c(OC)c(OC)c3)noc2N)cc1
GI50 [61]: < 10 nM
GI50 [1]: 19.3 nM
GI50 [2]: < 10 nM
GI50 [3]: 31.9 nM
GI50 [4]: < 10 nM
GI50 [5]: < 10 nM
GI50 [6]: < 10 nM
GI50 [7]: < 10 nM
GI50 [8]: < 10 nM
GI50 [9]: < 10 nM
GI50 [10]: 32.8 nM
GI50 [11]: 13.9 nM
GI50 [12]: 25.1 nM
GI50 [13]: < 10 nM
GI50 [14]: 13400 nM
GI50 [15]: < 10 nM
GI50 [16]: < 10 nM
GI50 [17]: 18.8 nM
GI50 [18]: < 10 nM
GI50 [19]: < 10 nM
GI50 [20]: < 10 nM
GI50 [21]: < 10 nM
GI50 [62]: < 10 nM
GI50 [22]: < 10 nM
EC [23]: 0.005 µM
GI50 [24]: < 10 nM
GI50 [25]: < 10 nM
GI50 [26]: < 10 nM
GI50 [27]: < 10 nM
EC [28]: 0.5 µM
GI50 [30]: < 10 nM
GI50 [32]: 15.1 nM
GI50 [33]: < 10 nM
GI50 [34]: 14.4 nM
GI50 [36]: < 10 nM
GI50 [37]: 14.5 nM
GI50 [38]: < 10 nM
GI50 [39]: < 10 nM
GI50 [40]: 10.6 nM
GI50 [41]: 13.5 nM
GI50 [42]: < 10 nM
EC [43]: 0.002 µM
GI50 [44]: 14.9 nM
GI50 [46]: 56.7 nM
GI50 [47]: 15200 nM
GI50 [48]: < 10 nM
GI50 [49]: 27.4 nM
GI50 [50]: 24.4 nM
GI50 [52]: 46.6 nM
GI50 [53]: 10500 nM
GI50 [54]: < 10 nM
GI50 [55]: < 10 nM
GI50 [56]: < 10 nM
GI50 [57]: < 10 nM
GI50 [59]: < 10 nM
GI50 [60]: < 10 nM
